Laboratory results from patent US4362728A, “Haloguanidine compounds, pharmaceutical compositions and methods of use” (ICI Americas Inc., priority 1979, dated 1982).

Test system: male Swiss-Webster mice
Experiment: intraperitoneal toxicity observation in mice
Assay type: in vivo
Conditions: 50 mg./kg. intraperitoneal in 10% w/v dimethylsulphoxide in saline; observed four hours and checked 24 hours after dosing

Structure (SMILES) | toxic symptoms
CNC(=C[N+](=O)[O-])NCCCCc1csc(N=C(N)NCC(F)(F)F)n1 [Example 9] | No toxic symptoms
CNC(=NS(C)(=O)=O)NCCCCc1csc(NC(N)=NCC(F)(F)F)n1 [Example 11, 2-[2-(2,2,2-trifluoroethyl)guanidino]-4-[4-(2-methylsulphonyl-3-methylguanidino)butyl]thiazole] | No toxic symptoms
